Test results taken from patent US12617779B2, “Self degradation-type CDK9 inhibitor prodrug and liposome encapsulating same” (Sumitomo Pharma Co., Ltd., priority 2021, dated 2026).

Legend:
[1] = Evaluation of conversion rate to active form in buffer solution (Experimental Example 1); format: physicochemical; conditions: for Production rate of Alvocidib / Residual rate: 25 umol/L in buffer solution; for Stability in buffer solution at pH 5: pH 5, 37° C., up to 2 or 3 hours; for Conversion to Alvocidib at pH 7.4: pH 7.4, 37° C., up to 3 hours
How it was run: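 Compounds at 25 umol/L were held at 37 °C in 50 mM citrate (pH 5.0, 5.5) or phosphate (pH 6.0–7.4) buffers. Remaining compound and Alvocidib formed were quantified by HPLC at 0, 0.5, 1, 2 and 3 h.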

[2] = Evaluation of conversion rate to active form in human plasma (Experimental Example 3); format: in vitro ADME; conditions: 0.2 μmol/L, 37° C.; for Residual rate (%) of test compound: Human plasma; for Conversion to Alvocidib in human plasma: Examples up to 60 minutes, Comparative Examples up to 120 minutes
How it was run: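 Test compound at 0.2 μmol/L was incubated at 37° C in human or BALB/c mouse plasma and sampled at 0, 30 and 60 min or at 0, 60 and 120 min. Compound and Alvocidib were quantified by LC-MS/MS peak area. Attrition is relative to 0 min; conversion is relative to 0.2 μmol/L Alvocidib reference.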

## CCCN(C[C@@H]1CCCCN1)C(=O)Oc1cc(O)c2c(=O)cc(-c3ccccc3Cl)oc2c1[C@H]1CCN(C)C[C@H]1O [Example 5, 2-(2-chlorophenyl)-5-hydroxy-8-[(3S,4R)-3-hydroxy-1-methylpiperidin-4-yl]-4-oxo-4H-1-benzopyran-7-yl {[(2S)-piperidin-2-yl]methyl}propylcarbamate]
[1]; buffer solution, 37° C.
  Efficiency of conversion to Alvocidib: higher efficiency
[1]; pH5.0, 0 hr, 37° C.
  Production rate of Alvocidib: 0.0%
  Residual rate: 98.7%
[1]
  Stability in buffer solution at pH 5: stable
  Conversion to Alvocidib at pH 7.4: rapidly converted to Alvocidib
[1]; pH5.0, 0.5 hr, 37° C.
  Production rate of Alvocidib: 0.6%
  Residual rate: 98.3%
[1]; pH5.0, 1 hr, 37° C.
  Production rate of Alvocidib: 1.1%
  Residual rate: 97.8%
[1]; pH5.0, 2 hr, 37° C.
  Production rate of Alvocidib: 2.3%
  Residual rate: 96.7%
[1]; pH5.0, 3 hr, 37° C.
  Production rate of Alvocidib: 3.4%
  Residual rate: 95.8%
[1]; pH5.5, 0 hr, 37° C.
  Production rate of Alvocidib: 0.0%
  Residual rate: 98.3%
[1]; pH5.5, 0.5 hr, 37° C.
  Production rate of Alvocidib: 1.2%
  Residual rate: 97.2%
[1]; pH5.5, 1 hr, 37° C.
  Production rate of Alvocidib: 2.1%
  Residual rate: 96.4%
[1]; pH5.5, 2 hr, 37° C.
  Production rate of Alvocidib: 3.9%
  Residual rate: 94.5%
[1]; pH5.5, 3 hr, 37° C.
  Production rate of Alvocidib: 5.7%
  Residual rate: 92.7%
[1]; pH6.0, 0 hr, 37° C.
  Production rate of Alvocidib: 0.0%
  Residual rate: 98.7%
[1]; pH6.0, 0.5 hr, 37° C.
  Production rate of Alvocidib: 3.6%
  Residual rate: 95.2%
[1]; pH6.0, 1 hr, 37° C.
  Production rate of Alvocidib: 6.6%
  Residual rate: 92.2%
[1]; pH6.0, 2 hr, 37° C.
  Production rate of Alvocidib: 12.8%
  Residual rate: 85.7%
[1]; pH6.0, 3 hr, 37° C.
  Production rate of Alvocidib: 18.6%
  Residual rate: 79.8%
[1]; pH6.5, 0 hr, 37° C.
  Production rate of Alvocidib: 0.0%
  Residual rate: 98.4%
[1]; pH6.5, 0.5 hr, 37° C.
  Production rate of Alvocidib: 9.5%
  Residual rate: 88.9%
[1]; pH6.5, 1 hr, 37° C.
  Production rate of Alvocidib: 17.1%
  Residual rate: 80.9%
[1]; pH6.5, 2 hr, 37° C.
  Production rate of Alvocidib: 32.1%
  Residual rate: 65.5%
[1]; pH6.5, 3 hr, 37° C.
  Production rate of Alvocidib: 44.2%
  Residual rate: 52.6%
[1]; pH7.0, 0 hr, 37° C.
  Production rate of Alvocidib: 0.0%
  Residual rate: 98.4%
[1]; pH7.0, 0.5 hr, 37° C.
  Production rate of Alvocidib: 25.0%
  Residual rate: 72.7%
[1]; pH7.0, 1 hr, 37° C.
  Production rate of Alvocidib: 41.9%
  Residual rate: 55.0%
[1]; pH7.0, 2 hr, 37° C.
  Production rate of Alvocidib: 66.7%
  Residual rate: 28.7%
[1]; pH7.0, 3 hr, 37° C.
  Production rate of Alvocidib: 79.9%
  Residual rate: 15.0%
[1]; pH7.4, 0 hr, 37° C.
  Production rate of Alvocidib: 0.0%
  Residual rate: 98.7%
[1]; pH7.4, 0.5 hr, 37° C.
  Production rate of Alvocidib: 47.5%
  Residual rate: 49.4%
[1]; pH7.4, 1 hr, 37° C.
  Production rate of Alvocidib: 69.8%
  Residual rate: 25.9%
[1]; pH7.4, 2 hr, 37° C.
  Production rate of Alvocidib: 88.9%
  Residual rate: 5.9%
[1]; pH7.4, 3 hr, 37° C.
  Production rate of Alvocidib: 93.2%
  Residual rate: 1.5%
[2]; 0 min
  Residual rate (%) of test compound: 100%
[2]; 30 min
  Residual rate (%) of test compound: 1%
[2]; 60 min
  Residual rate (%) of test compound: 0%
[2]
  Conversion to Alvocidib in human plasma: proceeded rapidly

## CCCN(C[C@H]1CCCCN1)C(=O)Oc1cc(O)c2c(=O)cc(-c3ccccc3Cl)oc2c1[C@H]1CCN(C)C[C@H]1O [Example 6, 2-(2-chlorophenyl)-5-hydroxy-8-[(3S,4R)-3-hydroxy-1-methylpiperidin-4-yl]-4-oxo-4H-1-benzopyran-7-yl {[(2R)-piperidin-2-yl]methyl}propylcarbamate]
[1]; pH5.0, 0 hr, 37° C.
  Production rate of Alvocidib: 0.5%
  Residual rate: 99.3%
[1]
  Stability in buffer solution at pH 5: stable
  Conversion to Alvocidib at pH 7.4: rapidly converted to Alvocidib
[1]; pH5.0, 0.5 hr, 37° C.
  Production rate of Alvocidib: 0.9%
  Residual rate: 99.1%
[1]; pH5.0, 1 hr, 37° C.
  Production rate of Alvocidib: 1.3%
  Residual rate: 98.7%
[1]; pH5.0, 2 hr, 37° C.
  Production rate of Alvocidib: 2.0%
  Residual rate: 97.8%
[1]; pH5.0, 3 hr, 37° C.
  Production rate of Alvocidib: 2.6%
  Residual rate: 96.8%
[1]; pH5.5, 0 hr, 37° C.
  Production rate of Alvocidib: 0.5%
  Residual rate: 99.5%
[1]; pH5.5, 0.5 hr, 37° C.
  Production rate of Alvocidib: 1.6%
  Residual rate: 98.1%
[1]; pH5.5, 1 hr, 37° C.
  Production rate of Alvocidib: 2.5%
  Residual rate: 97.0%
[1]; pH5.5, 2 hr, 37° C.
  Production rate of Alvocidib: 4.3%
  Residual rate: 94.2%
[1]; pH5.5, 3 hr, 37° C.
  Production rate of Alvocidib: 6.2%
  Residual rate: 91.9%
[1]; pH6.0, 0 hr, 37° C.
  Production rate of Alvocidib: 0.6%
  Residual rate: 99.4%
[1]; pH6.0, 0.5 hr, 37° C.
  Production rate of Alvocidib: 4.0%
  Residual rate: 94.8%
[1]; pH6.0, 1 hr, 37° C.
  Production rate of Alvocidib: 7.1%
  Residual rate: 90.7%
[1]; pH6.0, 2 hr, 37° C.
  Production rate of Alvocidib: 13.2%
  Residual rate: 82.5%
[1]; pH6.0, 3 hr, 37° C.
  Production rate of Alvocidib: 18.6%
  Residual rate: 75.2%
[1]; pH6.5, 0 hr, 37° C.
  Production rate of Alvocidib: 0.6%
  Residual rate: 99.4%
[1]; pH6.5, 0.5 hr, 37° C.
  Production rate of Alvocidib: 10.1%
  Residual rate: 86.6%
[1]; pH6.5, 1 hr, 37° C.
  Production rate of Alvocidib: 18.6%
  Residual rate: 75.3%
[1]; pH6.5, 2 hr, 37° C.
  Production rate of Alvocidib: 31.9%
  Residual rate: 56.9%
[1]; pH6.5, 3 hr, 37° C.
  Production rate of Alvocidib: 42.8%
  Residual rate: 42.3%
[1]; pH7.0, 0 hr, 37° C.
  Production rate of Alvocidib: 0.7%
  Residual rate: 99.3%
[1]; pH7.0, 0.5 hr, 37° C.
  Production rate of Alvocidib: 27.0%
  Residual rate: 63.7%
[1]; pH7.0, 1 hr, 37° C.
  Production rate of Alvocidib: 44.4%
  Residual rate: 40.4%
[1]; pH7.0, 2 hr, 37° C.
  Production rate of Alvocidib: 62.8%
  Residual rate: 16.1%
[1]; pH7.0, 3 hr, 37° C.
  Production rate of Alvocidib: 69.8%
  Residual rate: 6.8%
[1]; pH7.4, 0 hr, 37° C.
  Production rate of Alvocidib: 0.9%
  Residual rate: 99.1%
[1]; pH7.4, 0.5 hr, 37° C.
  Production rate of Alvocidib: 47.8%
  Residual rate: 36.3%
[1]; pH7.4, 1 hr, 37° C.
  Production rate of Alvocidib: 65.7%
  Residual rate: 12.7%
[1]; pH7.4, 2 hr, 37° C.
  Production rate of Alvocidib: 73.6%
  Residual rate: 2.7%
[1]; pH7.4, 3 hr, 37° C.
  Production rate of Alvocidib: 75.3%
  Residual rate: 0.7%
[2]; 0 min
  Residual rate (%) of test compound: 100%
[2]; 30 min
  Residual rate (%) of test compound: 3%
[2]; 60 min
  Residual rate (%) of test compound: 2%
[2]
  Conversion to Alvocidib in human plasma: proceeded rapidly
